The values that follow come from paper PMC6389498, “Control of Bacterial Virulence through the Peptide Signature of the Habitat” (Cell Reports, 2019).

Data set [1] addresses T1, PrfA (Listeria monocytogenes serovar 1/2a, UniProt P22262). As to the kind of experiment: biochemical. Format: binding. Also on record: His tag (inferred from pET28a vector and nickel-column purification); made in house; host or cells: E. coli BL21. The conditions noted are these: for Binding to PrfA detected by ITC: ITC with purified PrfA, free L-Leu at 1 mM. A general note: Isothermal titration calorimetry measures the heat released or taken up as one component is titrated into another.

Data set [2] has as its system PrfA-dependent expression (PrfA-regulated hly promoter, luxABCDE reporter). In words: Phly-lux reporter of PrfA-dependent gene expression, wild-type P14. The conditions noted are these: for PrfA downregulation (repression of Phly-lux expression): wild-type P14 in regular CDM (0.8 mM Cys), 1 mM peptide vs no-peptide control, 37°C, maximum normalized luminescence, means of three triplicate experiments. Format: cell-based, Listeria monocytogenes. The protocol:
(§1) Listeria were routinely grown in porcine BHI (BD-Difco) and Escherichia coli in Luria-Bertani (LB) media, with 1% agar for solid cultures. For adsorbent-treated BHI agar, 1% (w/v) Amberlite XAD4 resin (Sigma-Aldrich) or 0.5% (w/v) activated charcoal powder (Merck) was added to the medium prior to autoclaving. For fluid Amberlite XAD4-treated BHI cultures (BHI-Amb), the resin was aseptically removed after autoclaving to avoid interference with optical density (OD) readings. Chemically defined CDM is a modification of the improved minimal medium (IMM) of [Phan-Thanh and Gormon (1997)], with the following composition: 6.56 g/L […], 30.96 g/L NaHPO4 7H2O, 0.41 g/L MgSO4, 88 mg/L ferric citrate, 0.1 g/L each of the (L-) amino acids leucine, isoleucine, valine, methionine, arginine, cysteine, histidine and tryptophan, 0.6 g/L L-glutamine, 2.5 mg/L adenine, 0.5 mg/L biotin, 5 mg/L riboflavin, 1 mg/L each of thiamine, pyridoxal, para-aminobenzoic acid, calcium panthothenate and nicotinamide, 5 μg/L thioctic acid and 4.5 g/L glucose. CDM was used freshly prepared from filter-sterilized stock solutions stored at 4°C (except cysteine, glutamine, biotin and ferric citrate solutions, kept at –20°C; and phosphates, MgSO4 and glucose, at room temperature). Antibiotic supplements (μg/mL) were as follows (lower values for Listeria, others for E. coli or both): erythromycin 5 or 250, chloramphenicol 7.5 or 20, spectinomycin 100, carbenicillin 100. All incubations were carried out at 37°C, with 180 rpm orbital shaking for fluid cultures, unless stated otherwise. GSH was kept in reduced state with 2 mM Tris[2-carboxyethyl]phosphine hydrochloride (TCEP) in the stock solution. Chemicals and oligonucleotides were from Sigma-Aldrich unless otherwise indicated.
(§2) PrfA-dependent gene expression was quantitatively analyzed throughout the L. monocytogenes growth curve using a chromosomally integrated luxABCDE operon under the control of the PrfA-regulated hly promoter ([Bron et al., 2006]). Overnight bacterial cultures were washed, resuspended in PBS and used to inoculate fresh medium to an initial OD at 600 nm (OD600) ≈0.02-0.05. Triplicate 200-μl aliquots were transferred to opaque 96-well plates with clear bottom (ThermoScientific) and OD600 and luminescence readings taken every 30 min during incubation in an automated microplate reader (FLUOstar Omega, BMG Labtech). Bioluminescence values were normalized to growth at each time point. RT-qPCR transcription analysis was performed on total RNA samples extracted from mid-exponential L. monocytogenes cultures (OD600 ≈0.2-0.3 for BHI media) using RNeasy mini kit (QIAGEN) as previously described ([Deshayes et al., 2012]). The number of transcripts was calculated by interpolation of threshold cycle (CT) values of cDNA amplifications in a standard regression curve generated from samples of known DNA concentration. Expession data were normalized by dividing the number of transcripts of the test gene by the geometric mean of the number of transcripts of the reference housekeeping genes rpoB and ldh ([Deshayes et al., 2012]). See Table S3 for oligonucleotides used.

Data set [3] addresses T1, PrfA. The format is binding. On the set-up: His tag (inferred from pET28a vector and nickel-column purification); made in house; host or cells: E. coli BL21.
Data set [4] relates to PrfA-dependent expression (PrfA-regulated hly promoter, luxABCDE reporter). As to the kind of experiment: Phly-lux reporter of PrfA-dependent gene expression, opp (oppF::Tn) or ΔgshF mutant. The format is cell-based, Listeria monocytogenes. As to conditions: for Rescue of PrfA phenotype of opp mutant: opp mutant in BHI-Amb, GSH 1 mM, L-cysteine at the CDM concentration. The method, then:
as §1
as §2, with “RT-qPCR transcription analysis was performed on total RNA samples extracted from mid-exponential L. monocytogenes cultures (OD600 ≈0.2-0.3 for BHI media) using RNeasy mini kit (QIAGEN) as previously described ([Deshayes et al., 2012]).” left out, “Expession data were normalized by dividing the number of transcripts of the test gene by the geometric mean of the number of transcripts of the reference housekeeping genes rpoB and ldh ([Deshayes et al., 2012]). See Table S3 for oligonucleotides used.” left out

The target of data set [5] is T1, PrfA. The conditions noted are these: read-out: Kd for PrfA; ref Reniere et al., 2015; cited from earlier work.
Data set [6] deals with L. monocytogenes P14. In words: Fosfomycin MIC. The format is cell-based. As to conditions: Listeria monocytogenes.
The target of data set [7] is T2, PrfA^WT binding to the PplcA/hly PrfA box (Listeria monocytogenes serovar 1/2a, UniProt P22262).
T2 construct: His tag (inferred from pET28a vector and nickel-column purification); made in house; host or cells: E. coli BL21
As to the kind of experiment: Biolayer interferometry of PrfA-DNA binding, PrfAWT. Format: biochemical. The conditions noted are these: BLI, PrfA^WT-ligand mixes at 1:100 molar ratio, 50 mM Tris-Cl pH 7.5, 300 mM NaCl, 0.05 Tween 20; at least two experiments. The method, then:
Bacterial pellets of IPTG-induced cultures of E. coli BL21(pET28aprfA^WT) ([Deshayes et al., 2012]; Table S2) were resuspended in lysis buffer (50 mM Tris pH 7.5, 300 mM NaCl, 20 mM imidazole) and lysed with an EmulsiFlex homogenizer. After affinity chromatography on a HiTrap HP nickel column in an AKTA system (GE Healthcare), PrfA-containing fractions were pooled together, loaded on a HiTrap Heparin HP column and then on a Superdex 75 Gel Filtration column to remove nucleic acid and protein contaminants. The buffer used for the gel filtration and storage was 50 mM Tris pH 7.5, 300 mM NaCl. Fluorescence-based thermal shift assays were performed in a real-time PCR instrument (Bio-Rad) using 25 μL triplicate samples containing 10 μΜ recombinant PrfA, 5 × SyprOrange (Invitrogen) and 1 mM synthetic peptide. Isothermal Titration Calorimetry (ITC) experiments were performed in a GE MicroCal iTC200 system (GE Healthcare). PrfA was changed to 50 mM Tris pH 7.5, 500 mM NaCl buffer and 100 μΜ of PrfA protein injected into the cell. […] Data were analyzed with the inbuilt software of the ITC apparatus using a one-site model. The specific DNA-binding activity of PrfA was measured by biolayer interferometry (BLI) with a FortéBio Octet^RED 96 apparatus using a biotinylated double-stranded oligonucleotide containing the PplcA/hly PrfA box (Table S3). […]

Data set [8] has as its system L. monocytogenes P14. Format: cell-based, Listeria monocytogenes.

≈ marks a conversion by molar mass, not a printed value. Read-outs that look alike come from different tables or passages of the source. Residues, ends and D or L forms follow the SMILES beside them.

T1 sequence (P22262 whole entry): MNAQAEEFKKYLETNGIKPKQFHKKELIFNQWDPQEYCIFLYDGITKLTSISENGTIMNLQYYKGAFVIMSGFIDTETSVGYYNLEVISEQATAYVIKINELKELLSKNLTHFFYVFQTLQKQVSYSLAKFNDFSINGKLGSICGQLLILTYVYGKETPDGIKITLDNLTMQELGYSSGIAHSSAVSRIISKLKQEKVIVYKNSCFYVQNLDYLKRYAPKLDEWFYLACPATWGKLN
T2 sequence (P22262 whole entry): as above

Turning to `CC(C)C[C@H](NC(=O)[C@@H](N)CC(C)C)C(=O)O` [LL, L-leucylleucine], the Kd on PrfA [1] was about 25 µM.
For “ASSLLLVG [listerial derived octapeptide, putative peptide pheromone pPplA]”, the “PrfA downregulation (repression of Phly-lux expression)” value (“PrfA downregulation” for short) in data set [2] is recorded as 88%. Moreover, on PrfA [3], the “Change in melting temperature (Tm) of purified PrfA” value was “significant drop in the Tm”.
As for `N[C@@H](CCC(=O)N[C@@H](CS)C(=O)NCC(=O)O)C(=O)O` [GSH, γ-L-Glutamyl-L-cysteinylglycine], in data set [4], the “Rescue of PrfA phenotype of opp mutant” value was “fully restored the parental PrfA^+ phenotype”. In addition, the “Reversal of PrfA– phenotype of ΔgshF mutant” value in data set [4] (ΔgshF in BHI-Amb, 1 mM exogenous GSH (even at 8 mM, data not shown)) is “did not revert the PrfA^– phenotype”. The Kd at PrfA [5] was about 4000 µM. Besides, the “Binding to PrfA detected by ITC” value at PrfA [1] is recorded as “undetectable by ITC”.
Turning to RKDVY [known listerial Opp substrate], in data set [2], the “PrfA downregulation” value is reported as “no effect”.
KLLLLK [known listerial Opp substrate]: the “PrfA downregulation” value in data set [2] is 96%.
Turning to `CC(C)C[C@H](NC(=O)[C@H](CC(C)C)NC(=O)[C@@H](N)CC(C)C)C(=O)O` [LLL] (H-Leu-Leu-Leu-OH), the Kd on PrfA [1] was about 25 µM.
Consider `C[C@@H]1O[C@@H]1P(=O)(O)O` [fosfomycin], for which, in the data set with L. monocytogenes P14 [6], the MIC fell in the range of 12 to 32 µg/mL (≈ 86.9 to 232 µM).
As to “RGDC [Cys-containing synthetic tetrapeptide transported by Opp]”, the “Concentration that completely cancelled LL/LLL-mediated repression” value in data set [2] (wild-type in CDM with limiting Cys (0.1 mM), against fixed 0.25 mM LL or LLL) was found to be 80 µM. Further, the “Growth and PrfA-dependent expression with peptide as Cys source” value is “promoted growth and PrfA-dependent expression” in data set [2] (wild-type, CDM without Cys supplemented with 0.32 mM RGDC peptide); “not” in data set [4] (opp mutant, CDM without Cys supplemented with 0.32 mM RGDC peptide).
`CC(C)C[C@H](N)C(=O)O` [free Leu, leucine]: the “PrfA downregulation” value in data set [2] is “not inhibitory”. Moreover, in data set [7], the “Inhibition of PrfA-DNA binding” value is recorded as “not”. Also, the “Binding to PrfA detected by ITC” value on PrfA [1] was “no binding was detected”.
Consider `N[C@@H](CS)C(=O)O` [Cys, L-cysteine], for which the “Amount required to completely cancel LL/LLL-mediated repression” value in data set [2] (wild-type in CDM with limiting Cys (0.1 mM), against fixed 0.25 mM Leu peptide) is on record as 6.4 mM. In data set [4], the “Rescue of PrfA phenotype of opp mutant” value is on record as “Rescue of opp mutant”. Besides, the “Minimum concentration for eugonic growth” value with L. monocytogenes P14 [8] (CDM, wild-type and opp bacteria) is “≈ 0.2 mM”. Moreover, the “Concentrations that inhibit P14 growth” value in the data set with L. monocytogenes P14 [8] (Cys-deplete CDM supplemented with increasing free Cys) is at least 12800 µM.
As for “SQNPYPIV [known listerial Opp substrate]”, in data set [2], the “PrfA downregulation” value was found to be 59%.

What is called Kd is a measure of binding affinity in units of concentration. A word on the MIC: it is the least concentration at which growth counts as inhibited.
